The values below come from patent US11015169B2, “Culture medium for pluripotent stem cells” (Kyoto University, priority 2014, dated 2021).

Type in all cases: cell-based
Test [1] concerns Human ES cell lines KhES-1. The test is described as follows: Subculture of human ES cells in medium comprising a GSK3β inhibitor and a DYRK inhibitor, cell observation. The following applies: KhES-1, no feeder cells, vitronectin-N-coated dish; for maintenance of the ES cells (stability), among the GSK3β inhibitors: combined with DYRK inhibitor ID-8 500 nM, 1-azakenpaullone 750 nM, kenpaullone 500 nM. On the procedure:
25 mL of a solution in which a powder DMEM/F-12 medium (D0547, produced by Sigma-Aldrich) had been diluted two-fold with water, 1.4 mL of 6% sodium hydrogen carbonate solution, 0.75 mL of 1 M HEPES solution, 0.045 mL of 0.23 M ascorbic acid solution, 0.9 ML of ITS (Insulin-Transferrin-Selenium: 1 mg/ml-0.55 mg/ml-0.7 μg/ml) solution (ITS-G 41400-045, produced by Life Technologies), and 16.905 mL of water were mixed to obtain 45 mL of basal medium (340 mOsm, pH 7.2 to 7.5).
A GSK3β inhibitor (1-azakenpaullone (A3734, produced by Sigma-Aldrich), kenpaullone (1094-1, produced by BioVision), CHIR99021 (1386, produced by Axon Medchem), or BIO (B1686, produced by Sigma-Aldrich)), and a DYRK inhibitor (ID-8 (11786, produced by Sigma-Aldrich), harmine (Ser. No. 10/010,324, produced by Cayman Chemical), an indirubin analog 716 (6i) (ACS Medicinal Chemistry Letters, 2013, vol. 4, no. 1, pp. 22-26), INDY (405273, produced by Merck Millipore Corporation), L41 (MR-00023, produced by AdipoGen), or TG003 (4336, produced by R&D Systems)) were each added singly or in combination to the basal medium to thereby obtain a medium. The following are final concentrations in the medium.
Human ES cell lines KhES-1 (provided by Riken BioResource Center) were subcultured in the above medium. More specific details are below. The following culture was performed in the absence of feeder cells in a dish (vitronectin-N-coated dish) in which coating treatment was performed overnight using 1 μg of vitronectin-N (A14700 produced by Life Technologies) per 1 cm^2 of the culture dish.
ES cell colonies cultured in accordance with a standard method using a general-purpose medium for human ES cells (20% knockout serum replacement (10828-028, produced by Life Technology), 4 ng/ml of FGF2 (100-18B, produced by Peprotech)/DMEM/F-12 medium (11330-032, produced by Life Technology)) were rinsed once with PBS. A dispase solution (10 mg/ml dispase (Ser. No. 17/105,041, produced by Life Technologies)/DMEM/F-12) was added thereto so as to cover the cells, followed by being left to stand for 5 minutes. […]

For test [2], the system named is Human ES cell lines KhES-1. Description: Fold increase of cells within 6 days without passage. On the procedure:
(§1) A medium further comprising an NFAT inhibitor (tacrolimus (FK-506) (1007965, produced by Cayman Chemical)), in addition to a GSK3β inhibitor (1-azakenpaullone or kenpaullone) and a DYRK inhibitor (ID-8), was prepared as in Example 1. Using this medium, subculture and cell observation were performed as in Example 1. Separately from this, passage P1 was performed using this medium, as in Example 1, followed by culturing for 6 days without performing passage. Thereafter, the number of the cells was counted in accordance with a standard method, and, based on the counted number of cells, how many times the number of the cells increased within 6 days was calculated.

Test [3] relates to Human ES cell lines KhES-1. The test is described as follows: Subculture and cell observation in medium further comprising an NFAT inhibitor. As to conditions: tacrolimus added in addition to azakenpaullone and ID-8, FIG. 3A. As for the experimental part:
as §1

SMILES strings stand for the structures.

For the compound `COc1ccc(-n2c(C)c([N+](=O)[O-])c3ccc(O)cc32)cc1` [ID-8], the “maintenance of the ES cells (stability), among the DYRK inhibitors” value in test [1] (combined with 1-azakenpaullone 750 nM, ID-8 500 nM) is “most stable manner”.
Take `O=C1Cc2c([nH]c3ccc(Br)cc23)-c2ccccc2N1` [kenpaullone]: the “maintenance of the ES cells (stability), among the GSK3β inhibitors” value in test [1] was “most stable manner”.
Turning to `O=C1Cc2c([nH]c3ccc(Br)cc23)-c2ncccc2N1` [1-azakenpaullone], the “cell growth (fold increase of the cells), comparison of GSK3β inhibitors” value in test [2] (GSK3β inhibitor with ID-8 and tacrolimus, FIG. 3B) is given as “accelerates the cell growth more than kenpaullone”. For the same compound, in test [1], the “maintenance of the ES cells (stability), among the GSK3β inhibitors” value is listed as “most stable manner”.
For `C=CC[C@@H]1/C=C(\C)C[C@H](C)C[C@H](OC)[C@H]2O[C@@](O)(C(=O)C(=O)N3CCCC[C@H]3C(=O)O[C@H](/C(C)=C/[C@@H]3CC[C@@H](O)[C@H](OC)C3)[C@H](C)[C@@H](O)CC1=O)[C@H](C)C[C@@H]2OC` [tacrolimus], the “cell growth (fold increase of the cells)” value in test [2] (tacrolimus added in addition to azakenpaullone and ID-8, FIG. 3B) is “notably accelerated”. Moreover, the “maintenance of ES cells in an undifferentiated state” value in test [3] is “ES cells are maintained in an undifferentiated state”.
